Reference: ChEMBL document CHEMBL5625230, “The recent developments of camptothecin and its derivatives as potential anti-tumor agents” (Eur J Med Chem, 2023)
Each block holds one molecule with its values, some of them ahead of it.

Legend:
[1] = Cytotoxicity against Sf9 cells assessed as inhibition of cell growth measured after 24 hrs by MTT assay; assay type: toxicity, cell-based; conditions: Spodoptera frugiperda
[2] = Anticancer activity against human KBV cells assessed as reduction in cell growth measured after 72 hrs by SRB assay; assay type: functional, cell-based
A549 [3] = assay: Antiproliferative activity against human A549 cells assessed as inhibition of cell viability measured after 72 hrs by CCK-8 assay; assay type: functional, cell-based; conditions: A549, 72 h
HT-29 = assay: Antiproliferative activity against human HT-29 cells assessed as reduction in cell viability incubated for 72 hrs by MTT assay; assay type: functional, cell-based; conditions: HT-29, 72 h
HepG2 = assay: Antiproliferative activity against human HepG2 cells assessed as reduction in cell viability incubated for 72 hrs by MTT assay; assay type: functional, cell-based; conditions: HepG2, 72 h
A549 [4] = assay: Antitumor activity against human A549 cells assessed as reduction in cell viability incubated for 72 hrs by CCK-8 assay; assay type: functional, cell-based; conditions: A549, 72 h
PC-3M = assay: Cytotoxicity against human PC-3M cells assessed as reduction in cell viability measured after 72 hrs by MTS assay; assay type: functional, cell-based
HL-60 = assay: Antiproliferative activity against human HL-60 cells assessed as reduction in cell viability incubated for 48 hrs by MTT assay; assay type: functional, cell-based; conditions: HL-60, 48 h
[5] = Antitumor activity against mouse RM1 cells xenografted in C57BL/6 mouse assessed as tumor growth inhibition at 9 mg/kg, ip administered every other day for 3 times and measured on day 7 relative to control; assay type: functional; conditions: RM1, 168 h, time 7 day, read-out: TGI

Structure (SMILES): CC[C@@]1(O)C(=O)OCc2c1cc1n(c2=O)Cc2c-1nc1ccccc1c2C(=O)NCc1ccc(F)cc1
- IC50 at 24 h [1]: 2010 nM

Structure (SMILES): CCCCCNC(=O)c1c2c(nc3ccccc13)-c1cc3c(c(=O)n1C2)COC(=O)[C@]3(O)CC
- IC50 at 24 h [1]: 2010 nM

Structure (SMILES): CC[C@@]1(O)C(=O)OCc2c1cc1n(c2=O)Cc2c-1nc1ccccc1c2CN1CCN(C(=S)Nc2cccc3ccccc23)CC1
- IC50 [2]: 275000 nM

Structure (SMILES): CC[C@@]1(O)C(=O)OCc2c1cc1n(c2=O)Cc2c-1nc1ccccc1c2C(=O)NCc1ccccc1
- IC50 at 24 h [1]: 2010 nM

Structure (SMILES): CC[C@@]1(OCc2cn([C@@H]3c4cc5c(cc4[C@@H](c4cc(OC)c(O)c(OC)c4)[C@H]4C(=O)OC[C@@H]43)OCO5)nn2)C(=O)OCc2c1cc1n(c2=O)Cc2cc3ccccc3nc2-1
- IC50 (HL-60): 17700 nM

Structure (SMILES): CC[C@@]1(O)C(=O)OCc2c1cc1n(c2=O)Cc2c-1nc1ccccc1c2CN1CCN(C(=S)Nc2ccccc2OC)CC1
- IC50 [2]: 514000 nM

Structure (SMILES): CC[C@]1(O)c2cc3n(c(=O)c2CO[C@H]1F)Cc1cc2c4c(ccc2nc1-3)OCN(C1CCC1)C4
- IC50 (A549 [3]): 630 nM

Structure (SMILES): CC[C@@]1(OC(=O)CCC(=O)O[C@@H]2O[C@@H](C)[C@H](OC(C)=O)[C@@H](OC(C)=O)[C@H]2OC(C)=O)C(=O)OCc2c1cc1n(c2=O)Cc2cc3cc4c(cc3nc2-1)OCO4
- inhibition in vivo at 9 mg/kg [5]: 44.9%

Structure (SMILES): CC[C@]1(O)c2cc3n(c(=O)c2CO[C@H]1F)Cc1cc2c4c(ccc2nc1-3)OCN(C1CC1)C4
- IC50 (A549 [3]): 630 nM

More lines, main results first:

- IC50 (A549 [3]): 630 nM
Structure (SMILES): CC[C@]1(O)c2cc3n(c(=O)c2CO[C@H]1F)Cc1cc2c4c(ccc2nc1-3)OCN(C1CCCC1)C4

- IC50 (HT-29): 45.1 nM
- IC50 (HepG2): 165 nM
Structure (SMILES): CCCCCCCCCCCCCCCCOC(=O)[C@@]1(C)CCc2c(C)c(OC(=O)CCC(=O)O[C@]3(CC)C(=O)OCc4c3cc3n(c4=O)Cc4c-3nc3ccc(O)cc3c4CC)c(C)c(C)c2O1

- IC50 (A549 [4]): 18 nM
Structure (SMILES): CC[C@@]1(OC(=O)[C@@H](Cc2ccccc2)NC(=O)OC(C)(C)C)C(=O)OCc2c1cc1n(c2=O)Cc2cc3ccccc3nc2-1
- IC50 (PC-3M): 88 nM

- IC50 (A549 [3]): 630 nM
Structure (SMILES): CC[C@]1(O)c2cc3n(c(=O)c2CO[C@H]1F)Cc1cc2c4c(ccc2nc1-3)OCN(C1CCCCC1)C4
